Data as given in patent publication US20250263440A1, “CD38-BINDING AGENTS AND USES THEREOF” (PeptiDream Inc., priority 2019, published 2025).
Starred links: 1 amine or outer side, 2 acyl side, 3 side chain; linkers in the order of their positions; H or OH if unused. Positions of bridges follow the written chain, without caps; N, C: chain ends. Non-standard residues stand in square brackets, D forms with d. Residues, ends and D or L forms follow the SMILES beside them. *: point of attachment. Trp(6-aza) = N[C@@H](Cc1c[nH]c2cnccc12)C(=O)O; X2 = N=C(N)Nc1cccc(CC(N[*:1])C(=O)[*:2])c1; Bip = N[C@@H](Cc1ccc(-c2ccccc2)cc1)C(=O)O; Nle(6-Ph) = N[C@@H](CCCCc1ccccc1)C(=O)O; X3 = CCCCCCCCC[C@H](N[*:1])C(=O)[*:2]; X4 = CCCCCCC[C@H](N[*:1])C(=O)[*:2]; hhPhe = N[C@@H](CCCc1ccccc1)C(=O)O; Cit = NC(=O)NCCC[C@H](N)C(=O)O; Ahp(2) = CCCCC[C@H](N)C(=O)O; X1 = COCCOCCOCCOCCC(=O)*

Molecular target: His-tagged CD38 (Homo sapiens, UniProt P28907)
Assay: SPR assay (Biacore S200, Sensor Chip NTA, single-cycle kinetics) of SEQ ID NO.1 variants against His-tagged CD38
Format: binding
Conditions: for Kd: SPR Biacore S200, His-tagged CD38, calculated from ka and kd; for kon / koff: SPR Biacore S200, NTA chip, His-tagged CD38; for kon: read-out: Ka (association rate constant); for koff: read-out: Kd (dissociation rate constant)
Protocol: SPR assay was performed using Biacore S200 (Cytiva: Former GE Healthcare).
After the equilibration of Series S Sensor Chip NTA (produced by Cytiva: Former GE Healthcare) with Running Buffer (10 mM HEPES pH7.4, 150 mM NaCl, 0.05% Tween 20), followed by injection of 350 mM EDTA at a flow rate of 10 L/min for 60 seconds and […] NiCl2 at a flow rate of 10 L/min for 60 seconds, then 3 mM EDTA at a flow rate of 10 L/min for 120 seconds, sequently, to wash the sensor chip.
EDC/NHS mixture was injected at a flow rate of […] for 7 minutes to thereby activate the functional groups on sensor chip. His-tagged CD38 in Running Buffer (10 mM HEPES pH7.4, 150 mM NaCl, 0.05% Tween 20) was injected immobilized to at a flow rate of […]. For 7 minutes to immobilize the CD38 on the substrate surfaces of the sensor chip. Then Ethanolamine was injected at a flow rate of […] for 7 minutes.
1.0 M Ethanolamine(aq.) was injected at a flow rate of 10 L/min for 420 seconds for capping. 10 mM peptides (which were synthesised described above) in DMSO were diluted to obtain 10 uM with Running Buffer, and prepared 100 nM, 50 nM, 25 nM, 10 nM, 5 nM of each peptide's solutions (Peptide Samples).
Using these Peptide Samples, kinetics of peptides against His-tagged CD38 was measured. The method adopted for sample measurement was a single-cycle kinetics method. The analysis was conducted using the evaluation software 1.1 provided with Biacore S200. A DMSO correction curve obtained by solvent correction measurements was applied for the analysis. Kinetics fitting was done on the difference data obtained by subtracting the baseline data from sample measurement data.
KD values were calculated based on the association rate constant (ka) and dissociation rate constant (kd).

SMILES	Kd [nM]	kon [M⁻¹ s⁻¹]	koff [s⁻¹]
CCCCC[C@@H]1NC(=O)[C@H](CCCCNC(=O)CCOCCOCCOCCOC)NC(=O)[C@H](C)NC(=O)CSC[C@@H](C(N)=O)NC(=O)[C@H](CC(=O)O)NC(=O)[C@H](CCCCC)NC(=O)[C@H](Cc2ccc(-c3ccccc3)cc2)NC(=O)[C@H](CC(C)C)NC(=O)[C@H](C(C)C)NC(=O)[C@H](CCC(=O)O)NC(=O)[C@H](CC(=O)O)NC(=O)[C@H](Cc2c[nH]cn2)NC(=O)[C@H](Cc2ccc(O)cc2)NC1=O [compound 18] ({CH2CO}-AK(X1)[Ahp(2)]YHDEVL[Bip][Ahp(2)]DC-NH2; thioether N-13)	27.7	220000	0.006
CCCCC[C@@H]1NC(=O)[C@H](Cc2ccc(-c3ccccc3)cc2)NC(=O)[C@H](CC(C)C)NC(=O)[C@H](C(C)C)NC(=O)[C@H](CCC(=O)O)NC(=O)[C@H](CC(=O)O)NC(=O)[C@H](Cc2c[nH]cn2)NC(=O)[C@H](Cc2ccc(O)cc2)NC(=O)[C@H](CCCCNC(=O)CCOCCOCCOCCOC)NC(=O)[C@H](CCCNC(=N)N)NC(=O)[C@H](C)NC(=O)CSC[C@@H](C(N)=O)NC(=O)[C@H](CC(=O)O)NC1=O [compound 19] ({CH2CO}-ARK(X1)YHDEVL[Bip][Ahp(2)]DC-NH2; thioether N-13)	–	160000	0.0012
CCCCC[C@@H]1NC(=O)[C@H](Cc2ccc(-c3ccccc3)cc2)NC(=O)[C@H](CC(C)C)NC(=O)[C@H](C(C)C)NC(=O)[C@H](CCC(=O)O)NC(=O)[C@H](CC(=O)O)NC(=O)[C@H](Cc2c[nH]cn2)NC(=O)[C@H](Cc2ccc(O)cc2)NC(=O)[C@H](CCCCC)NC(=O)[C@H](CCCNC(=N)N)NC(=O)[C@@H](C)NC(=O)CSC[C@@H](C(N)=O)NC(=O)[C@H](CC(=O)O)NC1=O [compound 20] ({CH2CO}-[dA]R[Ahp(2)]YHDEVL[Bip][Ahp(2)]DC-NH2; thioether N-13)	10.6	730000	0.0077
CCCCC[C@@H]1NC(=O)[C@H](CCCNC(=N)N)NC(=O)[C@H](C)NC(=O)CSC[C@@H](C(N)=O)NC(=O)[C@H](CC(=O)O)NC(=O)[C@H](CCCCC)NC(=O)[C@H](Cc2ccc(-c3ccccc3)cc2)NC(=O)[C@H](CC(C)C)NC(=O)[C@H](C(C)C)NC(=O)[C@H](CCC(=O)O)NC(=O)[C@H](CC(=O)O)NC(=O)[C@H](Cc2c[nH]cn2)NC(=O)[C@H](C)NC1=O [compound 21] ({CH2CO}-AR[Ahp(2)]AHDEVL[Bip][Ahp(2)]DC-NH2; thioether N-13 (inferred); N-terminus and C-terminus assumed)	–	310000	0.016
CCCCC[C@@H]1NC(=O)[C@H](CCCNC(=N)N)NC(=O)[C@H](C)NC(=O)CSC[C@@H](C(N)=O)NC(=O)[C@H](CC(=O)O)NC(=O)[C@H](CCCCC)NC(=O)[C@H](Cc2ccc(-c3ccccc3)cc2)NC(=O)[C@H](CC(C)C)NC(=O)[C@H](C(C)C)NC(=O)[C@H](CCC(=O)O)NC(=O)[C@H](CC(=O)O)NC(=O)[C@H](Cc2c[nH]c3cnccc23)NC(=O)[C@H](Cc2ccc(O)cc2)NC1=O [compound 22] ({CH2CO}-AR[Ahp(2)]Y[Trp(6-aza)]DEVL[Bip][Ahp(2)]DC-NH2; thioether N-13)	10.9	790000	0.0087
CCCCCCC[C@@H]1NC(=O)[C@H](Cc2ccc(-c3ccccc3)cc2)NC(=O)[C@H](CC(C)C)NC(=O)[C@H](C(C)C)NC(=O)[C@H](CCC(=O)O)NC(=O)[C@H](CC(=O)O)NC(=O)[C@H](Cc2c[nH]cn2)NC(=O)[C@H](Cc2ccc(O)cc2)NC(=O)[C@H](CCCCC)NC(=O)[C@H](CCCNC(=N)N)NC(=O)[C@H](C)NC(=O)CSC[C@@H](C(N)=O)NC(=O)[C@H](CC(=O)O)NC1=O [compound 23] ({CH2CO}-AR[Ahp(2)]YHDEVL[Bip][X4]DC-NH2; thioether N-13)	–	820000	0.0027
CCCCCCCCC[C@@H]1NC(=O)[C@H](Cc2ccc(-c3ccccc3)cc2)NC(=O)[C@H](CC(C)C)NC(=O)[C@H](C(C)C)NC(=O)[C@H](CCC(=O)O)NC(=O)[C@H](CC(=O)O)NC(=O)[C@H](Cc2c[nH]cn2)NC(=O)[C@H](Cc2ccc(O)cc2)NC(=O)[C@H](CCCCC)NC(=O)[C@H](CCCNC(=N)N)NC(=O)[C@H](C)NC(=O)CSC[C@@H](C(N)=O)NC(=O)[C@H](CC(=O)O)NC1=O [compound 24] ({CH2CO}-AR[Ahp(2)]YHDEVL[Bip][X3]DC-NH2; thioether N-13 (inferred); N-terminus and C-terminus assumed)	–	370000	0.0013
CCCCC[C@@H]1NC(=O)[C@H](CCCNC(=N)N)NC(=O)[C@H](C)NC(=O)CSC[C@@H](C(N)=O)NC(=O)[C@H](CC(=O)O)NC(=O)[C@H](CCCCc2ccccc2)NC(=O)[C@H](Cc2ccc(-c3ccccc3)cc2)NC(=O)[C@H](CC(C)C)NC(=O)[C@H](C(C)C)NC(=O)[C@H](CCC(=O)O)NC(=O)[C@H](CC(=O)O)NC(=O)[C@H](Cc2c[nH]cn2)NC(=O)[C@H](Cc2ccc(O)cc2)NC1=O [compound 25] ({CH2CO}-AR[Ahp(2)]YHDEVL[Bip][Nle(6-Ph)]DC-NH2; thioether N-13)	–	630000	0.00087
CCCCC[C@@H]1NC(=O)[C@H](CCCNC(=N)N)NC(=O)[C@H](C)NC(=O)CSC[C@@H](C(N)=O)NC(=O)[C@H](CC(=O)O)NC(=O)[C@H](CCCc2ccccc2)NC(=O)[C@H](Cc2ccc(-c3ccccc3)cc2)NC(=O)[C@H](CC(C)C)NC(=O)[C@H](C(C)C)NC(=O)[C@H](CCC(=O)O)NC(=O)[C@H](CC(=O)O)NC(=O)[C@H](Cc2c[nH]cn2)NC(=O)[C@H](Cc2ccc(O)cc2)NC1=O [compound 26] ({CH2CO}-AR[Ahp(2)]YHDEVL[Bip][hhPhe]DC-NH2; thioether N-13)	–	1.9e+06	0.05
CCCCC[C@@H]1NC(=O)[C@H](Cc2ccc(-c3ccccc3)cc2)NC(=O)[C@H](CC(C)C)NC(=O)[C@H](C(C)C)NC(=O)[C@H](CCC(=O)O)NC(=O)[C@H](CC(=O)O)NC(=O)[C@H](Cc2c[nH]cn2)NC(=O)[C@H](Cc2ccc(O)cc2)NC(=O)[C@H](CCCCC)NC(=O)[C@H](CCCNC(=N)N)NC(=O)[C@H](C)NC(=O)CSC[C@@H](C(N)=O)NC(=O)[C@H](C)NC1=O [compound 27] ({CH2CO}-AR[Ahp(2)]YHDEVL[Bip][Ahp(2)]AC-NH2; thioether N-13 (inferred); N-terminus and C-terminus assumed)	–	560000	0.0028
CCCCC[C@@H]1NC(=O)[C@H](CCCNC(N)=O)NC(=O)[C@H](C)NC(=O)CSC[C@@H](C(N)=O)NC(=O)[C@H](CC(=O)O)NC(=O)[C@H](CCCCc2ccccc2)NC(=O)[C@H](Cc2ccc(-c3ccccc3)cc2)NC(=O)[C@H](CC(C)C)NC(=O)[C@H](C(C)C)NC(=O)[C@H](CCC(=O)O)NC(=O)[C@H](CC(=O)O)NC(=O)[C@H](Cc2c[nH]cn2)NC(=O)[C@H](Cc2ccc(O)cc2)NC1=O [compound 28] ({CH2CO}-A[Cit][Ahp(2)]YHDEVL[Bip][Nle(6-Ph)]DC-NH2; thioether N-13)	2.4	680000	0.0016
CCCCC[C@@H]1NC(=O)C(Cc2cccc(NC(=N)N)c2)NC(=O)[C@H](C)NC(=O)CSC[C@@H](C(N)=O)NC(=O)[C@H](CC(=O)O)NC(=O)[C@H](CCCCC)NC(=O)[C@H](Cc2ccc(-c3ccccc3)cc2)NC(=O)[C@H](CC(C)C)NC(=O)[C@H](C(C)C)NC(=O)[C@H](CCC(=O)O)NC(=O)[C@H](CC(=O)O)NC(=O)[C@H](Cc2c[nH]cn2)NC(=O)[C@H](Cc2ccc(O)cc2)NC1=O (stereo partly shown) [compound 29] ({CH2CO}-A[X2][Ahp(2)]YHDEVL[Bip][Ahp(2)]DC-NH2; thioether N-13; C-terminus assumed)	–	380000	0.00078
